Assay results published in US20130101565A1, “USE OF CARBONIC ANHYDRASE II FOR PRODUCING A DRUG” (CONSEJO SUPERIOR DE INVESTIGACIONES CIENTIFICAS (CSIC), priority 2009, published 2013).

How the values were obtained:
caspase 3 = experiment: In vivo renal ischemia-reperfusion: apoptosis evaluated by activity of caspase 3 in renal tissue; set-up: species or system Swiss strain mice; conditions: FIG. 2
Experimental: (§1) Swiss strain mice were used, males with an approximate weight of 25-30 g (Charles River, France). All the procedures were performed under the supervision of the ethics committee of the Institute for Biomedical Research of Barcelona (CSIC) and followed European Union guidelines. The environmental conditions were kept constant, the temperature was 21-22° C., the relative humidity was 70% and the alternative cycles of light/darkness were 12 h. The animals were fed a standard diet of AO4 fodder (Panlab, Barcelona) and water from the Barcelona supply network ad libitum.
(§2) The animals were anaesthesised with Isoflurane, placed in the supine position, and their body temperature was maintained at between 36° C. and 37° C. […]
(§3) The activity of caspase-3 was determined by measuring the proteolysis of the specific substrate (N-acetyl-Asp-Glu-Val-Asp-7-amino-4-methyl coumarin (DEVD-AMC; Biomol, Plymouth Meeting, Pa.). The renal tissue samples were homogenised and sonicated in the assay buffer (50 mM HEPES, 10% sucrose, 0.1% CHAPS, 5 mM GSSG, 5 mM DTT). The supernatants of the samples were incubated in this buffer, whereto DEVD-AMC at a concentration of 50 μM was added. The AMC released was quantified for 1 hour and a half at 37° C. by fluorospectrophotometry, using 380 nm of excitation and measuring the emission at 450 nm.

PCNA and Stathmin genes = experiment: In vivo renal ischemia-reperfusion: real-time RT-PCR of regeneration markers PCNA and Stathmin in kidney; set-up: species or system Swiss strain mice; conditions: FIG. 1
Experimental: as §1
The animals were anaesthesised with Isoflurane, placed in the supine position, and their body temperature was maintained at between 36° C. and 37° C. After performing a median laparotomy to access the kidney, carefully putting aside the intestinal packet, bilateral ischemia was induced by clamping both renal arterio-venous pedicles with a non-traumatic microvascular clamp for 45 minutes. Subsequently, the reperfusion period was started, with removal of the clamp, and it was visually verified by observing the return of the blood flow to the kidney. Subsequently, the animal was sutured and administered subcutaneous Buprex (4.16 μg/100 g of weight).
Animals subjected to a sham operation were used as controls. During the entire operation process, the animals were well hydrated and the body temperature was maintained at about 37° C. During the reperfusion time, the animals were stabulated under the control of a veterinary. […]
(§4) The RNA of the kidney samples was extracted by means of the TRIzol reagent in accordance with the manufacturer's instructions (Invitrogen, Barcelona). […] The RNA concentrations were calculated by determining the absorbance at 260 nm. The integrity of the RNA thus obtained was examined by analysing the 18s and 28s ribosomal RNA bands detected and analysed in the Bioanalyzer of the Clinical Hospital of Barcelona (Agilent).
The expression of the analysed genes was measured by means of real-time quantitative RT-PCR normalised with the glyceraldehyde 3-phosphate dehydrogenase (GAPDH) housekeeping gene. […]

[1] = system: Proximal tubular epithelial cells from rats (NRK52e); experiment: In vitro cisplatin-induced damage of renal tubular cells: real-time RT-PCR of PCNA and Ki67; type: cell-based; conditions: cis+CAII group: NRK52e, cisplatin 200 μM 6 h, then 10 μg/ml CAII 16 h; vs cis; FIG. 4
Experimental: (§5) Proximal tubular epithelial cells from rats (NRK52e) were kept in culture bottles (75 cm^2), with a culture medium (DMEM) whereto 17.5 mM of glucose and 2.5 mM of glutamine were added; this medium was also supplemented with antibiotics (100 units/ml of penicillin and 100 μg/ml of streptomycin) and 10% foetal calf serum (FCS). The cells were incubated in a humidified atmosphere with 5% CO2 at 37° C.
(§6) The control cells (control) were collected when they reached confluence without any treatment.
Treatment with cisplatin (Sigma) was performed by dissolving the drug in the minimum volume of DMSO (40 μl) and diluting it in PBS at a concentration of 200 μM. After 6 hours, the medium was removed and a new medium was added, without the drug for the CIS group and with 10 μg/ml of CAII for the CIS+CAII group. The samples were collected 16 hours later. […]
as §4, with “the” for “the kidney”, “samples taken from the cell culture” for “samples”, “using” for “by means of”
The expression of the analysed genes was measured by means of real-time quantitative RT-PCR normalised with GAPDH. […]

Erythropoietin (EPO) = experiment: In vivo renal ischemia-reperfusion: Western Blot for EPO in renal tissue; set-up: species or system Swiss strain mice; conditions: vs I/R, FIG. 3
Experimental: as §1, §2
The renal tissue samples were homogenised in lysis buffer (70 mM sucrose, 2 mM Hepes KOH, 220 mM Mannitol, 0.1 mM EGTA, 1 mM PMSF, 0.1 mM BSA, antiproteases cocktail (SIGMA)); subsequently, the protein concentration thereof was determined. The proteins were determined by means of the Bradford colorimetric method with a commercial reagent from BioRad.
50 μg of protein for each of the groups to be analysed were placed in each well of the 12% acrylamide gel. […]

[2] = system: Proximal tubular epithelial cells from rats (NRK52e); experiment: In vitro cisplatin-induced damage of renal tubular cells: apoptosis evaluated by activity of caspase 3; type: cell-based; conditions: cisplatin+CAII group: NRK52e, cisplatin 200 μM 6 h, then 10 μg/ml CAII 16 h; vs cisplatin; FIG. 5
Experimental: as §5, §6
Treatment with cisplatin (Sigma) was performed by dissolving the drug in the minimum volume of DMSO (40 μl) and diluting it in PBS at a concentration of 200 μM. […]
as §3, with “Pa.). The cell culture samples were” for “Pa.). The renal tissue samples were”, “of the sample were incubated” for “of the samples were incubated”, “C. by means of fluorospectrophotometry, using” for “C. by fluorospectrophotometry, using”

[3] = I/R+AZT group: Azetazolamide 30 mg/kg intraperitoneal one day prior to I/R

Compound | incidence of apoptosis (activity of caspase 3) (caspase 3; I/R+CAII group: CAII 5 mg/kg at beginning of reperfusion, vs I/R) | apoptosis naturally present in healthy tissue (activity of caspase 3) (caspase 3; control+CAII group: no I/R, CAII 5 mg/kg intravenous) | regenerative response (expression of PCNA and Stathmin mRNA) (PCNA and Stathmin genes; I/R+CAII group: 45 min ischemia, 24 h reperfusion, CAII 5 mg/kg into inferior vena cava at beginning of reperfusion, vs I/R) | regeneration (PCNA and Stathmin mRNA) in undamaged tissue (PCNA and Stathmin genes; control+CAII group: no I/R, CAII 5 mg/kg intravenous 24 h prior to sample collection) | regeneration (expression of PCNA and Ki67 mRNA) [1] | amount of EPO in kidney (Western Blot) (Erythropoietin (EPO); I/R+CAII group: CAII 5 mg/kg at beginning of reperfusion) | apoptosis (activity of caspase 3) [2] | regenerative markers (PCNA and Stathmin mRNA) (PCNA and Stathmin genes; [3]) | amount of EPO in kidney (Western Blot) (Erythropoietin (EPO); [3])
carbonic anhydrase II [CAII] | drastically reduced | does not affect | marked increase | did not induce regeneration | significantly increased regeneration | marked increase | capable of reverting apoptosis |  | 
CC(=O)Nc1nnc(S(N)(=O)=O)s1 [azetazolamide, Azetazolamide, reference compound] |  |  |  |  |  |  |  | decrease | reduced the amount of EPO
